A value given as a limit tells only on which side of the number the result lay.

One data set relates to gastric acid secretion. The data set can be described thus: Inhibition of gastric acid secretion in Shay rats (Shay's method, pylorus ligation). It is filed as in vivo, Male Wistar rats. Conditions: Rattus norvegicus, administered intraduodenally. From the text: Shay's method [H. Shay; S. A. Komarov; S. S. Fels; D. Merange: M. Grvenstein; H. Siplet: Gastroenterology, 5, 43 (1945)--F. E. Visscber; P. H. Seay: A. P. Taxelaar; W. Veldkamp; M. J. Vander Brook: J. Pharmac. Exp. Ther., 110, 188 (1954)--"Animal Experiments in Pharmacological Analysis", F. R. Domer: C. C. Thomas, published by Springfield, Ill., U.S.A., 1970, p. 140].
Male Wistar rats weighing 200 to 250 grams are used in this test; they are fasted from the day preceding the day of the test, with free access to water. Groups containing a minimum of 4 animals each are used.
The rats are anesthetized with ethyl ether, a laparotomy is performed on them and their pylorus is ligated; the abdominal incision is then sewn up. The administration of the products, with the vehicle for the control group, is effected intraduodenally (i.d.) before the abdominal incision is sewn up. The dose administered in the first test is 40 mg/kg and the 50% effective dose (ED50), administered intraduodenally, is also determined in a second test. The vehicle used is gum arabic at a concentration of 5% w/v in double-distilled water.
Two hours after ligation of the pylorus, the rats are sacrificed by prolonged anesthesia with ethyl ether and the volume of gastric juice is measured; the total acidity is determined by means of a pH meter equipped with an automatic burette. For each product and each dose tested, the percentage inhibition of gastric acid secretion is determined relative to the control group.

The test system of data set [1] is gastric lesions induced by ethanol. Kind of data set: Gastric cytoprotection: inhibition of gastric lesions induced by ethanol. It is filed as in vivo, Male Wistar rats. The conditions noted are these: 40 mg/kg oral. The method, then: Male Wistar rats weighing 150 to 200 grams are used in this test; they are fasted for 24 hours, but with water "ad libitum". Groups containing a minimum of 5 animals each are used.
At the beginning of the study, the rats receive the products described, or the vehicle in the case of the rats in the control group, by oral administration using a stomach tube. The dose administered for the products described is 40 mg/kg. The vehicle employed is gum arabic at a concentration of 5% w/v in double-distilled water.
Thirty minutes after the treatment, the rats receive 1 ml of absolute ethanol by oral administration using a stomach tube. One hour after the treatment with ethanol, the rats are sacrificed by prolonged anesthesia with ethyl ether, their stomachs are extracted and opened along the greater curvature and the lesions in the stomach mucosa are evaluated. For this evaluation, the hemorrhage points are counted and the size of the necrotic ulcers is measured.
For each product tested, the percentage inhibition of gastric lesions is determined relative to the control group.

Data set [2] can be described thus: Acute toxicity in mice (Litchfield and Wilcoxon). It is filed as in vivo. The conditions noted are these: mouse, in vivo, po, administered orally; male. The method, then:
(§1) Method of Litchfield and Wilcoxon (J. T. Litchfield and E. J. Wilcoxon: J. Pharmacol. Exp. Therap., 96, 19-113 (1949)).
(§2) The product is administered orally as a suspension in gum arabic at a concentration of 5% in double-distilled water. The volume administered is 10 - ml/kg. The 50% lethal dose (LD50) is calculated by the method cited.

For another data set, the system named is mice. Kind of data set: Acute toxicity in mice (Litchfield and Wilcoxon). Type of data set: in vivo. The conditions noted are these: administered orally; female. As for the experimental part: as §1, §2

A word on the ED50: it is the dose at which the effect has come halfway, by size or by number of responders. The low end stands for an effect at a small dose, the high end for a need for a large dose. In turn, `O=[N+]([O-])c1ccc2nc3n(c2c1)CCN(CCCN1CCOCC1)S3(=O)=O` [Example 142] yielded an ED50 in the data set with gastric acid secretion (2 h) of 17.5 mg/kg. The inhibition in vivo at 40 mg/kg with gastric acid secretion (intraduodenal, dose = 40 mg/kg, 2 h after pylorus ligation, read-out: Percentage inhibition of gastric acid secretion) stood at 79.4%. Also, the “Evaluation of the lesions (x ± standard deviation)” value in data set [1] is 0. The “Inhibition of gastric lesions” value in data set [1] (relative to control (gum arabic)) is 100%.

By LD50 is commonly meant the dose expected to kill half of the subjects tested. A low value points to greater toxicity. With `CCN1C(c2ccc([N+](=O)[O-])cc2)=Cn2c(nc3ccc([N+](=O)[O-])cc32)S1(=O)=O` [Example 179, 2H-2-Ethyl-7-nitro-3-(4-nitrophenyl)-[1,2,5]-thiadiazino-[5,6-a]benzimidazole 1,1-dioxide], the LD50 (in data set [2]; with mice) was greater than 6400 mg/kg in each case.

Source of the values: patent US4943570A, “Benzimidazolesulfonamides and imidazopyridinesulfonamides, and their application as drugs” (Laboratorios Del Dr. Esteve, S.A., priority 1986, dated 1990).
